Common to all, as to format: in vivo, mouse
For data set [1], the system named is RyR2^+/RyR^R4496C mice. As to the kind of experiment: ECG radiotelemetry: effect of propranolol on RR and QT interval in RyR2+/RyRR4496C mice. The method, then:
The cardiac activity in transgenic animals is preferably measured by continuous ECG monitoring. ECG radiotelemetry monitors (Data Sciences International) are typically implanted intraabdominally under general anaesthesia. After recovery from surgery the electrocardiographic signal is recorded continuously in conscious animal kept in special cages provided with receivers and connected to a A/D converted an a PC for data storage. Off-line analyses of stored ECGs parameters comprise: quantification of arrhythmias, heart rate trends, heart rate variability assessment (power spectrum analysis), QT interval and T wave assessments. Other parameters of cardiac functionality measurable by ECG are the following: baseline QT interval (measured using the tangent method^23), RR interval, RR variability.
(§1) ECG radiotelemetry monitors (Data Sciences International) were implanted intraabdominally under general anaesthesia (Avertin […]). Body temperature was maintained at 37° C. by use of a thermally controlled heating pad (Harvard Apparatus). ECG was continuously monitored starting 48 h after surgery. After 72 hours of recovery from surgery phenotype characterization was performed.
(§2) One group (Group 1) of animals exercised on a treadmill until exhaustion. The animals were then injected with epinephrine 2 mg/kg i.p. (WT n=12, RyR2^+/RyR^R4496C n=14). A second group of animals (Group 2) was injected with epinephrine (2 mg/kg ip) and caffeine (120 mg/kg i.p.) (WT, n=8, RyR2^+/RyR^R4496C, n=7). ECG monitoring was performed continuously during both exercise and drug testing protocols. Five additional RyR2^+/RyR^R4496C animals were treated for 24 hours with propranolol i.p. (2 mg/Kg) every 12 hours before being exposed to the epinephrine and caffeine protocol.
(§3) Five RyR2^+/RyR^R4496C mice were treated with propranolol to evaluate if antiadrenergic compounds could prevent induction of arrhythmias. After drug administration we observed a prolongation of RR interval from 94.5±13 to 118±13 msec […] (p<0.001). […] Despite pretreatment with betablockers, the administration of caffeine and epinephrine elicited VTsust in 2 and VF in 2 (sustained arrhythmias in 4 mice); only one mouse had no arrhythmias (p=0.56; i.e. non significant versus RyR2+/RyR^R4496C mice).

In data set [2] the test system is WT mice. As to the kind of experiment: ECG radiotelemetry: effect of betablockers on RR interval in WT mice.
Data set [3] deals with RyR2^+/RyR^R4496C mice. Description: Epinephrine and caffeine arrhythmia induction after propranolol pretreatment (continuous ECG monitoring). The method, then:
Arrhythmias were defined as follows: non sustained ventricular tachycardia (VTns) was defined as a series of 4 to 10 consecutive repetitive ventricular ectopic beats (VEBs), sustained VT (VTsust) was defined as a run of >10 consecutive VEBs, ventricular fibrillation (VF) was defined as a VTsust degenerating into ventricular fibrillation leading to sudden death.
as §1, §2
Among the RyR2^+/RyR^R4496C mice 4/8 or 50% developed sustained arrhythmias (VTsust n=2; FIG. 4 panel B and VF n=2; FIG. 5 panel B p=0.02 versus WT; Table I).
as §3

Where [4] appears, read: 5 pretreated mice, epinephrine 2 mg/kg i.p. and caffeine 120 mg/kg i.p.
[5] abbreviates: Group 2, N=5, epinephrine and caffeine i.p.

Marks after values point to notes of the source that are not given here.

Regarding `CC(C)NCC(O)COc1cccc2ccccc12` (stereo not shown) [propranolol], in data set [1] (Group 2, N=5, beta blockade, p=0.0001 vs untreated RyR2^+/RyR^R4496C), the “Baseline RR” value is 121 + 23*. Also, in data set [1] (Group 2, N=5, beta blockade, tangent method, ANOVA P=0.966), the “Baseline QT” value was 23 + 0.2§. For the same compound, in data set [1] (RyR2^+/RyR^R4496C animals pretreated with betablockers, Group 2), the “RR interval (in words)” value is recorded as “significantly prolonged”. Also, the “mean prolongation of RR interval” value in data set [1] (RyR2^+/RyR^R4496C mice after betablockers, p=0.69 vs WT) was found to be 23.62 ± 0.14 ms. Besides, the “percentage of RR change after betablockers (Δ%=ΔRR*100/RR baseline)” value in data set [1] (RyR2^+/RyR^R4496C mice, p=0.52 vs WT) is recorded as 25±3%. Further, in data set [1] (five RyR2^+/RyR^R4496C mice, propranolol i.p. 2 mg/Kg every 12 hours for 24 hours, prolongation from 94.5±13, p<0.001), the “RR interval after drug administration” value was determined as 118 ± 13 ms. Besides, in data set [2] (WT mice), the “percentage of RR change after betablockers (Δ%=ΔRR*100/RR baseline)” value turned out to be 27±5%. Besides, in data set [2] (WT mice after betablockers), the “mean prolongation of RR interval” value came out at 22.92 ± 3.6 ms. Further, in data set [3] (setting [4]), the “number of mice with VF” value is recorded as 2 and the “number of mice with VTsust” value turned out to be 2. In data set [3] (5 pretreated mice, epinephrine and caffeine), the “number of mice with no arrhythmias” value was “one”. Moreover, in data set [3] (5 pretreated mice, epinephrine and caffeine, p=0.56 versus untreated RyR2+/RyR^R4496C mice), the “sustained arrhythmias (number of mice)” value came to 4 mice. Further, in data set [3] (setting [5]), the “All VT/VF (sum of animals experiencing VTns or VTsust or VF)” value was determined as 4, the “VTns (number of animals)” value came out at 0 and the “VTsust & VF (number of animals)” value worked out at 4. Further, the “prevention of arrhythmias (in words)” value in data set [3] (RyR2^+/RyR^R4496C mice) was “not effective in preventing arrhythmias”.

The record behind these values is US7741529B1, “Transgenic animal model for catecholaminergic polymorphic ventricular tachycardia (CPVT) and use thereof” (priority 2006, dated 2010).
